Key:
[1] = system: Influenza A virus; assay: Antiviral activity against Influenza A virus A/WSN/33 (H1N1) infected in HEK293T cells at 10 uM by Gaussia luciferase reporter assay; type: functional; details: HEK-293T
[2] = system: Influenza A virus; assay: Antiviral activity against Influenza A virus A/WSN/33 (H1N1) infected in HEK293T cells by Gaussia luciferase reporter assay; type: functional, organism-based; details: HEK-293T
[3] = Selectivity index, ratio of CC50 for human HEK293T cells to IC50 for antiviral activity against Influenza A virus A/WSN/33 (H1N1) infected in HEK293T cells; type: toxicity, cell-based; details: read-out: Ratio CC50/IC50
[4] = Cytotoxicity against human HEK293T cells assessed as cell viability after 48 hrs by CCK-8 assay; type: toxicity, cell-based, HEK-293T

| Structure (SMILES) | inhibition at 10 µM [1] | IC50 [2] | selectivity ratio [3] | CC50 at 48 h [4] |
| --- | --- | --- | --- | --- |
| Cn1cc(SCc2nnc(SCc3ccccc3OC(F)(F)F)n2-c2c(Cl)cccc2Cl)c2ccccc21 | > 50% | 1.41 µM | > 70.9 | > 100 µM |
| Cn1cc(SCc2nnc(SCc3ccc(Cl)c(F)c3)n2-c2c(Cl)cccc2Cl)c2ccccc21 | > 50% | 7.12 µM | > 14 | > 100 µM |
| Cn1cc(SCc2nnc(SCc3ccccc3Cl)n2-c2c(Cl)cccc2Cl)c2ccccc21 | > 50% | 7.46 µM | 6.65 | 49.6 µM |
| Cn1cc(SCc2nnc(SCc3cccc(Cl)c3F)n2-c2c(Cl)cccc2Cl)c2ccccc21 | > 50% | 4.21 µM | > 23.8 | > 100 µM |
| Cn1cc(SCc2nnc(SCc3ccc(Cl)cc3F)n2-c2c(Cl)cccc2Cl)c2ccccc21 | > 50% | 11.5 µM | 7.67 | 87.3 µM |
| Cn1cc(SCc2nnc(SCc3cc(Cl)ccc3F)n2-c2c(Cl)cccc2Cl)c2ccccc21 | > 50% | 2.83 µM | > 35.3 | > 100 µM |
| Cn1cc(SCc2nnc(SCc3cccc(Cl)c3Cl)n2-c2c(Cl)cccc2Cl)c2ccccc21 | > 50% | 2.14 µM | > 46.7 | > 100 µM |
| Cn1cc(SCc2nnc(SCc3ccccc3C#N)n2-c2c(Cl)cccc2Cl)c2ccccc21 | > 50% | 3.18 µM | 24.7 | 78.6 µM |
| Cn1cc(SCc2nnc(SCc3ccc(Cl)cc3Cl)n2-c2c(Cl)cccc2Cl)c2ccccc21 | > 50% | 6.19 µM | > 16.2 | > 100 µM |
| Cn1cc(SCc2nnc(SCc3cc(Cl)ccc3Cl)n2-c2c(Cl)cccc2Cl)c2ccccc21 | > 50% | 5.12 µM | > 19.5 | > 100 µM |
| Cn1cc(SCc2nnc(S)n2-c2c(Cl)cccc2Cl)c2ccccc21 | > 50% | 1.48 µM | > 67.6 | > 100 µM |
| Cn1cc(SCc2nnc(SCc3c(F)cccc3Cl)n2-c2c(Cl)cccc2Cl)c2ccccc21 | > 50% | 3.94 µM | > 25.4 | > 100 µM |
| Cn1cc(SCc2nnc(SCc3ccc(OC(F)(F)F)c(Cl)c3)n2-c2c(Cl)cccc2Cl)c2ccccc21 | > 50% | 7.49 µM | 10.4 | 77.7 µM |
| Cn1cc(SCc2nnc(SCc3cc(C(F)(F)F)ccc3Cl)n2-c2c(Cl)cccc2Cl)c2ccccc21 | > 50% | 5.1 µM | 10.6 | 53.8 µM |
| Cn1cc(SCc2nnc(SCc3ccc(Cl)cc3C(F)(F)F)n2-c2c(Cl)cccc2Cl)c2ccccc21 | > 50% | 2.59 µM | 21.8 | 56.5 µM |
| CCOC(=O)c1c(CSc2nnc(CSc3cn(C)c4ccccc34)n2-c2c(Cl)cccc2Cl)n(C)c2cc(Br)c(OC(C)=O)cc12 | > 50% | 2.27 µM | > 44 | > 100 µM |
| Cn1cc(SCc2nnc(SCc3ccccc3)n2-c2c(Cl)cccc2Cl)c2ccccc21 | > 50% | 1.34 µM | > 74.6 | > 100 µM |
| Cn1cc(SCc2nnc(SCc3c(Cl)cccc3Cl)n2-c2c(Cl)cccc2Cl)c2ccccc21 | > 50% | 9.1 µM | > 11 | > 100 µM |
| NC(=O)c1ncn([C@@H]2O[C@H](CO)[C@@H](O)[C@H]2O)n1 [RIBAVIRIN] | – | 27.8 µM | – | > 100 µM |

Source: ChEMBL document CHEMBL5143634, “Design, synthesis, and anti-influenza A virus activity evaluation of novel indole containing derivatives of triazole” (Bioorg Med Chem Lett, 2022)
